Source: US11331306B2, “Pharmaceutical compositions comprising 4-[1-(2,3-dimethylphenyl)ethyl]-3H-imidazole derivatives for treating retinal diseases” (Allergan, Inc., priority 2011, dated 2022)
pEC50: −log10 of the molar value. Like-named read-outs stand apart in the source and are kept apart here.

How the values were obtained:
[1] = biological target: T1, alpha 2A receptor (Homo sapiens, UniProt P08913); assay: biochemical; conditions: for Relative Efficacy: efficacy relative to the full agonist brimonidine (1.0)
T1 sequence (P08913 1-465): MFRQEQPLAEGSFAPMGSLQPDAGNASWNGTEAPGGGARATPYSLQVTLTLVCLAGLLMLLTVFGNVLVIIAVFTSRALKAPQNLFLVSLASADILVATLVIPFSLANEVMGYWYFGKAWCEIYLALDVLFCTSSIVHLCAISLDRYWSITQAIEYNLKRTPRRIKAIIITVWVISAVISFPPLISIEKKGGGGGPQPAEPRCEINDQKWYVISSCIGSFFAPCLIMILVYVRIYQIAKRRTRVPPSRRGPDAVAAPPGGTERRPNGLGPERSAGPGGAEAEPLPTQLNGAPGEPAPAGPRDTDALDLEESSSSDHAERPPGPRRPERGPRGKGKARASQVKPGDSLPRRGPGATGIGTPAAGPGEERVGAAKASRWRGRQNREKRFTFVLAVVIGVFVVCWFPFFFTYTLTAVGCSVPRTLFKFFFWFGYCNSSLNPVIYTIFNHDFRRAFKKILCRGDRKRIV
Experimental: In the GTPase assay, receptor activation results in dissociation of GDP and binding of the nonhydrolyzable [^35S]GTPyS to receptor-coupled G-proteins. The extent of binding is a measure of receptor activation. Membranes were prepared from HEK cells transiently expressing the alpha 2A receptor and the three subunits of the Gi G-protein. Membranes were thawed and resuspended using a Polytron disrupter in 4° C. membrane buffer and quantified via Bradford assay. The quantified protein was then added to reaction buffer [50 mM Tris-HCl, 100 mM NaCl, 5 mM MgCl2, 1 mM DTT, 1 mM EDTA, 3 μM propranolol, and 0.1 mM AMP; pH 7.4 and 4° C. to achieve a 100 μg/ml concentration, allowed to incubate for 15 minutes, and then incubated for an additional 10 minutes in the presence of 6 μM GDP. The above mixture was then aliquoted, 50 μL/well, in a 96 well plate, combined with an equal volume of test compound dissolved in assay buffer [50 mM Tris-HCl, 100 mM NaCl, 5 mM MgCl2, 1 mM EDTA, and 1 mM DTT, pH 7.4 and 4° C.], and allowed to incubate for 5 minutes. Immediately following the above incubation, the mixture was combined with 50 μL of 1.5 nM [^35S]GTPyS in assay buffer and shaken covered for 60 minutes at 25° C. Assays were terminated by vacuum filtration over GF/B filters blocked with 0.5% BSA. Filters were then washed with 4° C. wash buffer [50 mM Tris-HCl, 100 mM NaCl, and 5 mM MgCl2, pH 7.5. The incorporated [^35S]GTPyS was determined using a Microbeta 1450B liquid scintillation counter after the plates had dried overnight.

[2] = biological target: T2, α2A-adrenergic receptor (Homo sapiens, UniProt P08913); conditions: for down regulation of alpha 2A receptor (receptor density): binding studies, result in words; for Percent of B max Decrease: 24 hours, HEK 293T cells stably transfected with α2A-adrenergic receptor
T2 sequence (P08913 1-465): T1 sequence (P08913 1-465)
Experimental: Human embryonic kidney (HEK) 293T cells stably transfected with the α2A-adrenergic receptor were grown to 50-60% confluency on T-175 culture flasks in DMEM (Gibco, cat. #11995), 10% FBS (Gibco, cat. #16140), 0.25 μg/ml puromycin (Sigma, cat. # P-8833), and 1% antibiotic-antimycotic (Gibco, cat. #15240) maintained at 37° C. and 5% CO2. […] The cells were then washed with room temperature Dulbecco's phosphate buffered saline (DPBS; Gibco, cat. #14190).
Cells were harvested with 4° C. Tris-EDTA buffer [50 mM Tris-HCl, 5 mM EDTA; pH 7.4] and centrifuged at 5,000×g for 5 minutes at 4° C. Membrane preparation was conducted by resuspending the cell pellets in 4° C. Tris-EDTA buffer and lysed with a Polytron disrupter two times (setting 7, 5 seconds each). The lysed suspension was then centrifuged at […] for 32 minutes at 4° C. After decanting the supernatant, the pelleted material was further lysed in 4° C. Tris buffer [50 mM Tris-HCl; pH 8.0] using the Polytron disrupter (setting 4, 5 seconds). Membranes were then aliquoted, pelleted at […] for 32 minutes at 4° C., and stored at −80° C. until use.
Membranes were thawed and resuspended using a Polytron disrupter in 4° C. HBSS-HEPES buffer [1 part 1M HEPES: 5 parts 10× Hank's Balanced Salt Solution: 43.8 parts H2O; pH 7.4 with KOH) and quantified via Bradford assay. The quantified protein was further diluted with HBSS-HEPES buffer to achieve a 100 μg/ml concentration. Membrane suspension was plated in a 96-well plate at 200 IμLs/well±10 μM phentolamine HCl (Sigma, cat. # P-7547) and [Methyl-^3H] Rauwolscine (15 nM to 0.05 nM; PerkinElmer, cat. # NET722250UC). The assay plate was slowly shaken and incubated at 25° C. for ninety minutes. Immediately following the above incubation, the assays were terminated by vacuum filtration over GF/B filters. Filters were then washed with 4° C. HBSS-HEPES buffer. The incorporated [Methyl-^3H] Rauwolscine was determined using a Microbeta 1450B liquid scintillation counter after the plates had dried overnight.

[3] = tested on: blue light model of retinal degeneration in rats; assay: blue light model of retinal degeneration, retinal thickness by OCT; type: in vivo, Sprague Dawley rats; conditions: 1 mg/kg/day subcutaneous infusion from two days before 4 hours blue light, OCT at 7 days post exposure, versus saline
Experimental: (§1) Drugs were administered continuously with subcutaneous infusion pumps at a dose of 1 mg/kg/day starting two days before blue light exposure. These concentrations result in drug levels in the retina of 2.3 ng/g OH-dexmedetomidine which are sufficient for pharmacological activity. Twenty 4-month old male Sprague Dawley rats (body weight 470-550 g) were used in this study. The animals were exposed to room light on a 12 hour light/12 hour dark cycle before the experiment. All animals were dark adapted overnight (16-20 hours) before blue light. Under the intensity of 6100-6500 lux, rats were exposed to blue light for 4 hours. After the blue light, rats were placed in the dark for another 3 days before returning to normal 12 hour light/12 hour dark. Ocular Coherence Tomography (OCT) measurement was performed at 7 days post blue light exposure. […] Histology studies have shown that the reduction in retinal thickness is attributable to loss of photoreceptors.

[4] = drug level in the retina under continuous subcutaneous infusion; type: in vivo, Sprague Dawley rats; conditions: rats, continuous subcutaneous infusion pumps, 1 mg/kg/day
Experimental: as §1

| Structure (SMILES) | pEC50 [1] | Relative Efficacy [1] | down regulation of alpha 2A receptor (receptor density) [2] | Percent of B max Decrease ([2]; compound concentration 1 μM) [%] | Percent of B max Decrease ([2]; compound concentration 10 μM) [%] | damage caused by blue light (reduction of retinal thickness measured by OCT) [3] | damage caused by blue light (reduction of retinal thickness measured by OCT) ([3]; listed as (S) [3-(1-(1H-imidazol-4-yl)ethyl)-2-methylphenyl] methanol) | drug levels in the retina [4] [ng/g] |
| --- | --- | --- | --- | --- | --- | --- | --- | --- |
| Cc1c(CO)cccc1C(C)c1c[nH]cn1 (racemic) [OH-medetomidine, [3-(1-(1H-imidazol-4-yl)ethyl)-2-methylphenyl] methanol, reference compound] | 7.70 | 0.26 |  |  |  |  |  |  |
| Cc1c(CO)cccc1[C@H](C)c1c[nH]cn1 [OH-dexmedetomidine, (S) [3-(1-(1H-imidazol-4-yl)ethyl)-2-methylphenyl] methanol] | 7.35 | 0.65 | very little down regulation of alpha 2A receptor | −25 | −14 | significantly reduced the damage caused by blue light | reduced the damage caused by blue light | 2.3 |
| Brc1c(N=C2NCCN2)ccc2nccnc12 [brimonidine, (5-bromo-quinoxalin-6-yl)-imidazolidin-2-ylidene-amine, reference compound] |  |  | strong reduction in the alpha 2A receptor density | −45 | −60 |  |  |  |
